According to article PMC5559489 (Scientific Reports, 2017):

Key:
[1] = target: seasonal influenza A(H3N2) virus neuraminidase (NA) (Influenza A virus, UniProt V9SU56); assay type: biochemical
[2] = target: seasonal influenza B virus neuraminidase (NA) (Influenza B virus, UniProt C0LT34); assay type: biochemical

CCOC(=O)C1=C[C@@H](OC(CC)CC)[C@H](NC(C)=O)[C@@H](N)C1 [oseltamivir, Oseltamivir]
susceptibility to oseltamivir (WHO definition) [1]: sensitive
susceptibility to oseltamivir (WHO definition) [2]: sensitive
